According to PubChem BioAssay AID179 (DTP/NCI, 2004):
Where “and” joins values, the source holds several entries; their conditions need not be identical. Equal values may be shown once. Calls of active or inactive are those of the source.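 Rule for the calls: active = compounds giving half or more protection of infected cells from virus-caused growth loss, again on retest; inactive = the rest.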 Where a SMILES comes first, the peptide text is derived from it. [ ]: non-standard residue; d: D form. The star is where a group is joined. AllylGly = C=CC[CH](N)C(=O)O; Boc = CC(C)(C)OC(=O)*; OtBu = CC(C)(C)O*

Test system: CEM cells HIV-1 protection, formazan growth assay
Experiment: NCI AIDS Antiviral Assay
Settings: for IC50: measured here: growth of uninfected CEM cells
Outline: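 Protection of CEM cells against HIV-1 was scored from cell growth (soluble formazan) across five concentrations, with parallel uninfected cells. Lack of protection may reflect toxicity.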

| Compound | EC50 | IC50 | outcome |
| --- | --- | --- | --- |
| O=C1c2cccc3cccc(c23)C(=O)N1CCN1C(=O)c2cccc3cccc(c23)C1=O | > 200 µM | 30.2 µM |  |
| COc1ccc2[nH]c3c(c2c1)CCc1c(OC)cccc1-3 | > 200 µM | 178 µM |  |
| CC1CC(C)C(=O)C(C(=O)CC2CC(=O)NC2=O)C1 (stereo not given) | > 200 µM | > 200 µM |  |
| c1ccc(COC[C@H]2O[C@@H](c3ccccc3)C[C@@H](OCc3ccccc3)C2OCc2ccccc2)cc1 (stereo not given in full) | > 200 µM | > 200 µM |  |
| N#Cc1c(-c2ccccc2)c(C#N)c(=S)n(C2OCC(O)C(O)C2O)c1N (stereo not given) | > 200 µM | 195 µM and > 200 µM |  |
| C=C(c1ccccc1)N1N=NC2CCOC21 (stereo not given) | > 200 µM | > 200 µM |  |
| COC1CC2CCC(C)[C@](O)(O2)C(=O)C(=O)N2CCCCC2C(=O)OC(C(C)CC2CCC(O)C(OC)C2)CC(=O)C(C)C=C(C)C(OC(=O)CN(C)C)C(OC)C(=O)C(C)CC(C)/C=C/C=C/C=C\1C (stereo not given in full) | > 200 µM | 7.24 µM |  |
| C#[N+]CCOP(=O)(OCC1OC(n2cc(C)c(=O)[nH]c2=O)CC1N=[N+]=[N-])O[C@H]1CC[C@@]2(C)C(=CC[C@H]3[C@@H]4CC[C@H](C(C)/C=C/C(CC)C(C)C)[C@@]4(C)CC[C@@H]32)C1 (stereo not given in full) | 1.62 µM and 5.89 µM | > 200 µM |  |
| COc1cc(/C=C2\CCC(C)C3=C2NC(=S)NC3c2cc(OC)c(OC)c(OC)c2)cc(OC)c1OC (stereo not given) | > 200 µM | 32.4 µM |  |
| CCCCn1c2ccccc2c2ccc3c(c21)C(=O)C=CC3=O | > 17.4 µM | > 17.4 µM |  |
| CCOC(=O)CC1(CC(=O)OCC)C(=O)N(C)c2ccccc21 | > 200 µM | > 200 µM |  |
| C/C=C(/C)C(=O)O[C@@H]1c2c(C)coc2C[C@H]2CC[C@H](O)[C@H](C)[C@]21C | > 200 µM | 58.9 µM |  |
| O=C(O)c1cc(S(=O)(=O)Nc2cc(Cc3cc(NS(=O)(=O)c4ccc(O)c(C(=O)O)c4)c(O)c(C(=O)O)c3)cc(C(=O)O)c2O)ccc1O | > 100 µM | > 100 µM |  |
| O/N=C1/C(=C/c2ccc3c(c2)OCO3)CCCC1C(NO)c1ccc2c(c1)OCO2 (stereo not given) | > 12.6 µM | > 12.6 µM |  |
| CN(C)CCCC12OC(c3ccccc31)C(O)c1ccccc12 (stereo not given) | > 200 µM | > 200 µM |  |
| Cc1cnc([C@H]2CCC3[C@@H]4CC=C5C[C@@H](OC(=O)CCC(=O)O)CC[C@]5(C)C4CC[C@@]32C)s1 (stereo not given in full) | > 52.5 µM | 50.1 µM |  |
| COC(=O)[C@@H](Cc1ccccc1)N1O[C@]12CCCC[C@@H]2NC(=O)OC(C)(C)C (stereo not given in full) | > 200 µM | 32.4 µM |  |
| N#C/C(=C/c1ccco1)C(=O)c1ccccc1 | > 162 µM | > 162 µM |  |
| CCCCCCCCCCCCOCCCCCCCCC/C=C/c1ccc2c(c1)OCCOCCOCCOCCO2 | > 200 µM | 15.1 µM |  |
| O=C(CN(Cc1ccccc1)Cc1ccccc1)N1CCc2c([nH]c3ccccc23)C1c1cccnc1 (stereo not given) | > 5.62 µM | > 5.62 µM |  |
| O=C1C=CC2C3C(=O)N(c4ccccc4)C(=O)C3C1N2Cc1ccccc1 (stereo not given) | > 1.17 µM | > 1.17 µM |  |

| Compound | EC50 | IC50 | outcome |
| --- | --- | --- | --- |
| O=C1CSC(c2ccc(Cl)cc2)N1c1ccc(-n2c(-c3ccccc3)nc3ccccc3c2=O)cc1 (stereo not given) | > 200 µM | 67.6 µM |  |
| O=C(CC1(O)C(=O)Nc2ccccc21)c1ccc(Cl)c(Cl)c1 (stereo not given) |  |  | inactive |
| CNN1C(=O)c2c(N)c(C#N)c(-c3ccccc3)c(-c3ccccc3)c2C1=O | 16.2 µM | 174 µM |  |
| C=CCC(NC(=O)C(CC(=O)OC(C)(C)C)NC(=O)OC(C)(C)C)C(=O)OC (stereo not given) (Boc-Asp(OtBu)-[AllylGly]-OMe; configuration not given here) | > 200 µM | 97.7 µM |  |
| C[Si](C)(OCCS(=O)(=O)O)C1S(=O)(=O)OCCOS1(=O)=O | > 200 µM | 60.3 µM |  |
| c1cc2cc(Cc3ccc4[nH]ccc4c3)ccc2[nH]1 | > 200 µM | 30.9 µM |  |
| O=C1NC(=O)/C(=C/c2ccc(S(=O)(=O)N/N=C/c3ccccc3)cc2)N1 | > 200 µM | > 200 µM |  |
| CCOc1ccc2nc(NC(=O)C(=O)C(C(=O)c3ccccc3-c3ccccc3)C3OC(=O)c4ccccc43)sc2c1 (stereo not given) | > 309 µM | 132 µM |  |
| Cc1ccc(-c2n[nH]c(=O)n2/N=C\c2ccccc2)cc1 | > 200 µM | 110 µM |  |
| CCN(CC)c1ccc(/C=C2\CCc3ccc([N+](=O)[O-])cc3C2=O)cc1 | > 20 µM | 1.07 µM |  |
| CCOc1ccccc1/C=C1\NC(=O)NC1=O | > 200 µM | > 200 µM |  |
| O=C(O)CCc1c2ccc(=O)c(O)c-2oc2c(O)c(O)ccc12 | 85.1 µM | 102 µM |  |
| O=C(CCCN1CCc2[nH]c3ccccc3c2C1)c1ccc(F)cc1 | > 200 µM | 33.9 µM |  |
| Cc1ccc(C(=O)c2ccccc2C(=O)O)c(C)c1 | > 200 µM | > 200 µM |  |
| COc1cc(OC)c(C2c3cc4c(cc3OC(N3CCCC3)C2C)OCO4)c(OC)c1 (stereo not given) | > 200 µM | 4.37 µM |  |
| O=C1CS(=O)(=O)C(c2ccccc2F)N1N1C(=O)CS(=O)(=O)C1c1ccccc1F (stereo not given) | > 151 µM | > 151 µM |  |
| O=C(O)CCC(NC(=O)c1ccc(Nc2nc3ccccc3nc2-c2cccs2)cc1)C(=O)O (stereo not given) | > 525 µM | 457 µM |  |
| CC1(c2ccc3cccc(F)c3c2)OC(=O)c2ccccc21 (stereo not given) |  |  | inactive |
| COc1ccc2c(-c3ccc(OCCN(C)C)cc3)c(Oc3ccccc3)c(=O)oc2c1 | > 200 µM | 7.08 µM |  |
| O=C(O)c1n[nH]nc1Cl | > 200 µM | > 200 µM |  |
| O=C(Nc1ccccc1)C(c1ccccc1)N(Nc1ccccc1Cl)c1ccccc1Cl (stereo not given) | > 200 µM | 33.9 µM |  |

| Compound | EC50 | IC50 | outcome |
| --- | --- | --- | --- |
| COc1ccc(OC)c(C(Nc2ccc3cn[nH]c3c2)P(=O)(c2ccccc2)c2ccccc2)c1 (stereo not given) |  |  | inactive |
| CC(=O)N1CN2C(=O)CCC2c2cc(C)ccc21 (stereo not given) |  |  | inactive |
| CN=Cc1ccccc1O.CN=Cc1ccccc1O.[Cu+2] | > 200 µM | 11.2 µM |  |
| O=S(=O)(O)c1cccc(N=Nc2cc(S(=O)(=O)O)c3cccnc3c2O)c1 | > 550 µM | > 550 µM |  |
| CCCCCCCCNC(=O)/C(=C\c1ccc(/C=C(/NC(=O)c2ccccc2)C(=O)NCCCCCCCC)cc1)NC(=O)c1ccccc1 | > 100 µM | 23.4 µM |  |
| O=S1(=O)OCCOS(=O)(=O)C1(Br)Br | > 363 µM | > 363 µM |  |
| SC1N=C(c2ccco2)N2C(S)N=C(c3ccccc3)N12 (stereo not given) | > 200 µM | 182 µM |  |
| CC1(CO)COC(=O)C(C)(C2(C)NC(C)(CO)COC2=O)N1 (stereo not given) | > 794 µM | 28.2 µM |  |
| S=C1N(c2ccc(Cl)cc2)C2=C(N=Nc3cc(Cl)ccc3Cl)C(=Nc3ccccc3S2)N1c1ccccn1 | > 40.7 µM | > 40.7 µM |  |
| Cc1ccc(/C(O)=C/c2nc3ccccc3s/c2=N/CS(=O)(=O)c2ccc(C)cc2)cc1 | > 200 µM | > 200 µM |  |
| COC(=O)c1cc(/C=C/C(=O)Cc2ccccc2)cn1S(=O)(=O)c1ccccc1 | > 200 µM | > 200 µM |  |
| O=C(NC12CC3CC(NC(=O)c4ccccc4)(CC(C1)c1ccccc13)C2)c1ccccc1 | > 12 µM | > 12 µM |  |
| COC(=O)NN=C1C(C)(C)C(=O)C1(C)C | > 85.1 µM | > 85.1 µM |  |
| O=C(O)CNCc1c2ccccc2[n+]([O-])c2ccccc12 |  |  | inactive |
| Cc1cn(C2CC(ON3C(=O)c4ccccc4C3=O)C(CO)O2)c(=O)[nH]c1=O (stereo not given) | 26.9 µM and > 200 µM | > 200 µM |  |
| CN=c1ss/c(=N\C(=S)N(C)C)n1C |  |  | inactive |
| C/C(CC(=O)Nc1cc(Cl)c(Cl)cc1Cl)=N\NC(N)=O | > 21.4 µM | 2.75 µM |  |
| C=CCNC(=O)N(CCCC(NC(C)=O)C(=O)NCc1ccccc1)Cc1ccccc1 (stereo not given) | > 575 µM | > 575 µM |  |
| COc1cc(/C=C2/SC(c3ccccc3)N(Cc3ccccc3)C2=O)cc(OC)c1OC (stereo not given) | > 200 µM | 25.7 µM |  |
| CCOC(=O)N1CCN(c2c(C)nc(C)[nH]c2=O)CC1 | > 200 µM | > 200 µM |  |
| Cc1onc(-c2c(F)cccc2Cl)c1C(=O)Nc1cc2cc([N+](=O)[O-])ccc2oc1=O | > 50.1 µM | > 50.1 µM |  |

| Compound | EC50 | IC50 | outcome |
| --- | --- | --- | --- |
| COc1cc2c3cc1Oc1c(OC)c(OC)cc4c1[C@@H](Cc1ccc(O)c(c1)Oc1ccc(cc1)C[C@@H]3N(C)CC2)N(C)CC4 |  |  | inactive |
| S=C1NC(c2ccc(Cl)cc2)N2C(=S)NC(c3ccc(Cl)cc3)N12 (stereo not given) |  |  | inactive |
| CCCCCC1CC=CC(NC(=O)OCc2ccccc2)C1/C=C/C(=O)CCCCCOC(=O)c1ccc(Br)cc1 (stereo not given) |  |  | inactive |
| CCOC(=O)/C=C\c1c(Cl)n(-c2ccccc2)c(=O)n(-c2ccccc2)c1=O | > 200 µM | 31.6 µM |  |
| C[C@@]12C[C@@H](c3ccccc3O1)N1Cc3ccccc3CSC1=N2 | > 200 µM | 49 µM |  |
| COC(=O)[C@@H]1C[C@@H]2c3ccccc3N(S(=O)(=O)c3ccccc3)[C@@H]2N1C(=O)OC | > 200 µM | > 200 µM |  |
| Cc1nc2c3c(Cc4ccccc4)c(C)[nH]c3ncn2n1 | > 200 µM | 117 µM |  |
| CNC1(C(=O)O)CC1 | > 200 µM | > 200 µM |  |
| Cc1ns/c(=N\C(=S)N(C)C)n1C |  |  | inactive |
| NC(=O)CCC(NC(=O)c1ccccc1SC(=O)CCCC[n+]1ccccc1)C(N)=O (stereo not given) | 20.4 µM | > 200 µM |  |
| Cn1cc2ccccc2c1-c1nc(F)nc(Nc2ccc(N)cc2)n1 | > 15.5 µM | 7.94 µM |  |
| CCc1cccc(C(C)C)c1NC(=O)/C(=N\NC(N)=O)C(C(=O)OC)c1cnc2ccccc2n1 (stereo not given) |  |  | inactive |
| CC1(C)OCC([C@H]2CC23SCCCS3)O1 (stereo not given in full) | > 200 µM | > 200 µM |  |
| CC1(O)CCC2(C#N)CCC1C2O (stereo not given) | > 1380 µM | > 1380 µM |  |
| CO/N=C1/C(n2[nH]c(=O)n(-c3ccccc3)c2=O)C2C=CC1n1c(=O)n(-c3ccccc3)c(=O)n12 (stereo not given) | > 200 µM | > 200 µM |  |
| O=S1(=O)NNC(=NCc2ccc(Cl)cc2)c2ccccc21 |  |  | inactive |
| CCCCCCCCCc1cc(-c2ccc(C=O)s2)sc1-c1ccc(C=O)s1 | > 200 µM | 2.75 µM |  |
| CC(=O)Nc1ccc(S(=O)(=O)Nc2ccc(S(=O)(=O)c3ccc(NC(=O)c4ccccc4SSc4ccccc4C(=O)Nc4ccc(S(=O)(=O)c5ccc(NS(=O)(=O)c6ccc(NC(C)=O)cc6)cc5)cc4)cc3)cc2)cc1 | 24 µM | > 100 µM |  |
